Values quoted from earlier work, collected in PMC7984154 (Chemmedchem, 2020).

Tests used:
[1] = steady state, oral dose of 5 mg
[2] = tested on: FAP; details: cancer indications, also in combination with other chemotherapies

Structure (SMILES): CC#CCn1c(N2CCC[C@@H](N)C2)nc2c1c(=O)n(Cc1nc(C)c3ccccc3n1)c(=O)n2C [linagliptin]
- maximal plasma concentrations (single dose 600 mg): ~4 µM
- highest tolerable dose (single rising dose studies): 600 mg
- clinical maximum plasma concentration [1]: 12 nM

Structure (SMILES): CC(C)[C@H](N)C(=O)N1CCC[C@H]1B(O)O [PT100, talabostat]
- efficacy in the clinical setting [2]: minimal efficacy
